What all share (type): cell-based
The target of assay [1] is T1, human PR-B (Homo sapiens, UniProt P06401).
T1 construct: expressed in transfected cells; host or cells: CV-1 cells (African green monkey kidney fibroblasts), transient transfection
T1 sequence (P06401 1-933): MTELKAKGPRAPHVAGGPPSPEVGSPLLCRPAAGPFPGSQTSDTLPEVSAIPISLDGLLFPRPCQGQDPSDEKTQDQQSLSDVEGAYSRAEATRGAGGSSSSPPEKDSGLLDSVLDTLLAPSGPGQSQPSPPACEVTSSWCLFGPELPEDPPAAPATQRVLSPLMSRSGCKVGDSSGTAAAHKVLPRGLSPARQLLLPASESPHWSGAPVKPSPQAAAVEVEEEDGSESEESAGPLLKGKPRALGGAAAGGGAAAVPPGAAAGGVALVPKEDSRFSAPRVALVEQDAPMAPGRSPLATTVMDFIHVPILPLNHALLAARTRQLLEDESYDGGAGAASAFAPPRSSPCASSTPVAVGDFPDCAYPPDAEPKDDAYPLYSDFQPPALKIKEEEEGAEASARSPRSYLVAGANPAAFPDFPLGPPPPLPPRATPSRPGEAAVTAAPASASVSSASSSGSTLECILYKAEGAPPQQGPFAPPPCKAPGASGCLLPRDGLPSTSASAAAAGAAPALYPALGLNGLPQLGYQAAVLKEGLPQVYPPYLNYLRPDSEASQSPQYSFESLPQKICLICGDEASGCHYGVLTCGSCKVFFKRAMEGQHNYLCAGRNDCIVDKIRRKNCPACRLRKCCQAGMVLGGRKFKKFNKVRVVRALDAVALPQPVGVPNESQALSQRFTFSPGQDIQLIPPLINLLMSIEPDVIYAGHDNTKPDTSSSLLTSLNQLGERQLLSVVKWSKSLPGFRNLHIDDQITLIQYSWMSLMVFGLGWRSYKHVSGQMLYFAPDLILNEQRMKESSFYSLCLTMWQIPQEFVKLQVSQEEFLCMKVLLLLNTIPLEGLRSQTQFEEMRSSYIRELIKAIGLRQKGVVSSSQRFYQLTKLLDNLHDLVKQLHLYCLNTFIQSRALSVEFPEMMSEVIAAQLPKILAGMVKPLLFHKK
The experiment in a line: Co-transfection assay, PR agonist and antagonist activity, CV-1 cells.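 As to all read-outs here: luciferase reporter driven by a hormone response element, co-transfected with human PR-B into CV-1 monkey kidney cells, agonists raise and antagonists lower the reporter signal.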 The settings on record: for pEC50: EC50, read-out: PR Agonist CV-1 Cells Potency; for PR Antagonist CV-1 Cells Efficacy (%): antagonist mode, progesterone at its EC50, % maximal inhibition; for pIC50: read-out: PR Antagonist CV-1 Cells Potency.

Assay [2] deals with T2, human mineralocorticoid receptor (MR) (Homo sapiens, UniProt P08235).
T2 construct: expressed in transfected cells; host or cells: CV-1 cells, transient transfection
T2 sequence (P08235 1-984): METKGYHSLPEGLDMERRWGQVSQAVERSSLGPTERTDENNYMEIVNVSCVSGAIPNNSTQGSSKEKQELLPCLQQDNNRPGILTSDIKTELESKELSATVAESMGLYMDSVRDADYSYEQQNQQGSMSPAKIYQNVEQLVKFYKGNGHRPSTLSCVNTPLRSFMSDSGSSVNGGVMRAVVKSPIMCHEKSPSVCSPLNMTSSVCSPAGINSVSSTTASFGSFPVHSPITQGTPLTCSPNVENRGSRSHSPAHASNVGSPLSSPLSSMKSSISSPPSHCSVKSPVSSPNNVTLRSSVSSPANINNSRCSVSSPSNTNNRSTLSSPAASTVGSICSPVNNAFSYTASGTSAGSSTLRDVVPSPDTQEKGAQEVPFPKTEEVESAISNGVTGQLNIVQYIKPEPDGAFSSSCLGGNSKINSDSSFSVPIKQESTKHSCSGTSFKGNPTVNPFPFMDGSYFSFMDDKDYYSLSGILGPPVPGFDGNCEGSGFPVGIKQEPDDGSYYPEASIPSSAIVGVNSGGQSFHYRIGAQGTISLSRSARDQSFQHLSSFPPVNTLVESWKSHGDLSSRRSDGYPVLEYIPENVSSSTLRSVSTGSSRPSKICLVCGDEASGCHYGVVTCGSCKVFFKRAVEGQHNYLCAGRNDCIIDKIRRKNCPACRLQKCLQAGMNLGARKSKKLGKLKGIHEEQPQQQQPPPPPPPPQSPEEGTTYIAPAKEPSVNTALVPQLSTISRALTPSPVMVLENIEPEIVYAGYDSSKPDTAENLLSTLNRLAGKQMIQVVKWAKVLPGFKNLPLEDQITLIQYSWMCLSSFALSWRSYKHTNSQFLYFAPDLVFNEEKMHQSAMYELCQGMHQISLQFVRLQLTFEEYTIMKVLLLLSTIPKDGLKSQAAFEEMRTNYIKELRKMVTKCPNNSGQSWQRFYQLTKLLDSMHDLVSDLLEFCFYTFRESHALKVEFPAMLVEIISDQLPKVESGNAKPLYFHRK
As to the kind of experiment: Co-transfection assay, MR antagonist activity, CV-1 cells (pRShMR). The settings on record: antagonist mode; for MR Antagonist CV-1 Cells Efficacy (%): Table 4, % maximal inhibition; for pIC50: aldosterone at its EC50, IC50, read-out: MR Antagonist CV-1 Cells Potency.

The target of assay [3] is T3, human glucocorticoid receptor (GR) (Homo sapiens, UniProt P04150).
T3 construct: expressed in transfected cells; host or cells: CV-1 cells, transient transfection
T3 sequence (P04150 1-777): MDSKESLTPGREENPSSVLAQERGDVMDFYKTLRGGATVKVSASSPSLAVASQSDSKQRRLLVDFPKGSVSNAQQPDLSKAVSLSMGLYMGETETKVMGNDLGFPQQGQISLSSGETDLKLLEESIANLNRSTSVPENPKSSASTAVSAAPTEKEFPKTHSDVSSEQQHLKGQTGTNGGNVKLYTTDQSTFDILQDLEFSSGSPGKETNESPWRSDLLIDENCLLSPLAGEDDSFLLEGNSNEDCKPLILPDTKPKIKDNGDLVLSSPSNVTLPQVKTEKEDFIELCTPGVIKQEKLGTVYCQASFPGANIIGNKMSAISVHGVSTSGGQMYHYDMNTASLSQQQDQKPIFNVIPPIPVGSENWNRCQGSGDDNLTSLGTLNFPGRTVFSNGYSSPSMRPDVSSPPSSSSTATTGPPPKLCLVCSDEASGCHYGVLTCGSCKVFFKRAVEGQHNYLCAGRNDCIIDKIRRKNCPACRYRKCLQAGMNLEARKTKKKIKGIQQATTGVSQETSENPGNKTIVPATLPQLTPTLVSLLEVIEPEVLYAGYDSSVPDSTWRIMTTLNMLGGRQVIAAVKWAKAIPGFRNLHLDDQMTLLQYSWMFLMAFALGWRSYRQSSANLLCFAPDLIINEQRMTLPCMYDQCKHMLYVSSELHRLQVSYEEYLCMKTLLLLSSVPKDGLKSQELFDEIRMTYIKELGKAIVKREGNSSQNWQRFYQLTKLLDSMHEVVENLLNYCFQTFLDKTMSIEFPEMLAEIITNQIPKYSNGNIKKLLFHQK
The experiment in a line: Co-transfection assay, GR antagonist activity, CV-1 cells (pRShGR). As to conditions: antagonist mode; for GR Antagonist CV-1 Cells Efficacy (%): Table 4, % maximal inhibition; for pIC50: dexamethasone at its EC50, IC50, read-out: GR Antagonist CV-1 Cells Potency.

The structures appear in SMILES notation. pEC50, pIC50: −log10 of the molar value.

For the compound `CC1=CC(C)(C)Nc2ccc3c(c21)C(c1ccccc1)Oc1ccccc1-3` (racemic) [Compound 161, (R/S)-1,2-Dihydro-2,2,4-trimethyl-5-phenyl-5H-chromeno[3,4-f]quinoline], in assay [1] (agonist mode), the pEC50 is 6.69. In addition, the “PR Agonist CV-1 Cells Efficacy (%)” value in assay [1] (agonist mode, percent maximal response relative to reference agonist progesterone) is recorded as 47%. Moreover, in assay [1], the “PR Antagonist CV-1 Cells Efficacy (%)” value came out at 75% and the pIC50 is 6.68. Moreover, in assay [2], the “MR Antagonist CV-1 Cells Efficacy (%)” value was found to be 58% and the pIC50 was 6.00. In assay [3], the “GR Antagonist CV-1 Cells Efficacy (%)” value is recorded as 97% and the pIC50 is 6.22.

As to `CC1=CC(C)(C)Nc2ccc3c(c21)C(c1cccc(C(F)(F)F)c1)Oc1ccccc1-3` (racemic) [Compound 195, (R/S) 1,2-Dihydro-2,2,4-trimethyl-5-[3-(trifluoromethyl)phenyl]-5H-chromeno[3,4-f]quinoline], in assay [1] (agonist mode), the pEC50 was 7.89. In assay [1], the “PR Antagonist CV-1 Cells Efficacy (%)” value was “na (na = not active (i.e. efficacy or <20 and potency of >10,000))”; the pIC50 is under 5.00. Further, in assay [2], the “MR Antagonist CV-1 Cells Efficacy (%)” value is listed as 47% and the pIC50 was 5.72. In addition, in assay [3], the “GR Antagonist CV-1 Cells Efficacy (%)” value turned out to be 96% and the pIC50 was 6.23.

These data come from US6448405B1, “Steroid receptor modulator compounds and methods” (Ligand Pharmaceuticals Incorporated, priority 1994, dated 2002).
